Measured values from patent publication US12643881B2, “Bicyclic amine CDK12 inhibitors” (Incyte Corporation, priority 2021, dated 2026).

target: T1, CDK12 complexed with Cyclin K (Homo sapiens, UniProt Q9NYV4); experiment: CDK Enzymatic Assays (HTRF, LANCE Ultra kinase assay), Example A1; assay type: biochemical; conditions: enzyme pre-incubated with compounds for 60 minutes prior to addition of ATP (1 mM final) and Ulight-peptide; reaction 60-90 minutes at room temperature
T1 construct: GST (N)
From the text: Example A1. CDK Enzymatic Assays
The following activity of the CDK enzymes in complex with their respective cyclins we assayed: CDK1 complexed with Cyclin B1; CDK2 complexed with Cyclin E1; CDK4 complexed with Cyclin D1; CDK6 complexed with Cyclin D1; CDK6 complexed with Cyclin D3; CDK9 complexed with Cyclin T1; CDK7 complexed with Cyclin H/MAT1; CDK2 complexed with Cyclin A2; CDK5 complexed with p35; CDK12 complexed with Cyclin K; CDK13 complexed with Cyclin K. These in vitro enzyme activity are assayed using homogeneous time-resolved energy transfer (HTRF), which measures phosphorylation of a peptide substrate. The LANCER Ultra kinase assay (PerkinElmer) uses a ULight™-labeled EIF4E-binding protein 1 (THR37/46) peptide (DYSTTPGGTLFSTTPGTRI (SEQ ID NO: 1)) substrate and a Europium-labeled anti-phospho-4E-BP1 antibody (CDK2, CDK1, CDK4, CDK6, CDK9, CDK12, CDK13) or ULight™-labeled Myelin Basic Protein peptide (VTPRTPPP (SEQ ID NO: 2)) substrate and a Europium-labeled anti-phospho-MBP antibody (CDK7). Each CDK enzyme activity assays utilized human CDK co-expressed as N-terminal GST-tagged protein with its full length cyclin partner using a baculovirus expression system.
Enzyme was pre-incubated with compounds for 30 minutes (CDK1,2,4,6,9) or 60 minutes (CDK7, CDK12, CDK13) prior to addition of ATP and Ulight-peptide (1 mM and 50 nM final, respectively), in assay buffer containing 50 mM HEPES pH 7.5, 1 mM EGTA, 10 mM MgCl2, 2 mM DTT, 0.05 mg/mL BSA, and 0.01% Tween 20. The reaction was then incubated for 60-90 minutes at room temperature. The reactions were stopped by the addition of EDTA and Europium labeled antibody, for a final concentration of 15 mM and 1.0-1.5 nM, respectively. HTRF signals were read after 15-120 minutes. A ratio of fluorescence transferred to the labeled substrate (665 nm) relative to fluorescence of the Europium donor (620 nm) represents the extent of phosphorylation. Ratios for treated wells were normalized to DMSO only (100% activity) and no enzyme (0% activity) controls. Normalized data was analyzed using a three or four parameter dose response curve to determine IC50 for each compound and are shown in Table A. Control reference inhibitors were included on each plate.

T1 sequence (Q9NYV4 whole entry): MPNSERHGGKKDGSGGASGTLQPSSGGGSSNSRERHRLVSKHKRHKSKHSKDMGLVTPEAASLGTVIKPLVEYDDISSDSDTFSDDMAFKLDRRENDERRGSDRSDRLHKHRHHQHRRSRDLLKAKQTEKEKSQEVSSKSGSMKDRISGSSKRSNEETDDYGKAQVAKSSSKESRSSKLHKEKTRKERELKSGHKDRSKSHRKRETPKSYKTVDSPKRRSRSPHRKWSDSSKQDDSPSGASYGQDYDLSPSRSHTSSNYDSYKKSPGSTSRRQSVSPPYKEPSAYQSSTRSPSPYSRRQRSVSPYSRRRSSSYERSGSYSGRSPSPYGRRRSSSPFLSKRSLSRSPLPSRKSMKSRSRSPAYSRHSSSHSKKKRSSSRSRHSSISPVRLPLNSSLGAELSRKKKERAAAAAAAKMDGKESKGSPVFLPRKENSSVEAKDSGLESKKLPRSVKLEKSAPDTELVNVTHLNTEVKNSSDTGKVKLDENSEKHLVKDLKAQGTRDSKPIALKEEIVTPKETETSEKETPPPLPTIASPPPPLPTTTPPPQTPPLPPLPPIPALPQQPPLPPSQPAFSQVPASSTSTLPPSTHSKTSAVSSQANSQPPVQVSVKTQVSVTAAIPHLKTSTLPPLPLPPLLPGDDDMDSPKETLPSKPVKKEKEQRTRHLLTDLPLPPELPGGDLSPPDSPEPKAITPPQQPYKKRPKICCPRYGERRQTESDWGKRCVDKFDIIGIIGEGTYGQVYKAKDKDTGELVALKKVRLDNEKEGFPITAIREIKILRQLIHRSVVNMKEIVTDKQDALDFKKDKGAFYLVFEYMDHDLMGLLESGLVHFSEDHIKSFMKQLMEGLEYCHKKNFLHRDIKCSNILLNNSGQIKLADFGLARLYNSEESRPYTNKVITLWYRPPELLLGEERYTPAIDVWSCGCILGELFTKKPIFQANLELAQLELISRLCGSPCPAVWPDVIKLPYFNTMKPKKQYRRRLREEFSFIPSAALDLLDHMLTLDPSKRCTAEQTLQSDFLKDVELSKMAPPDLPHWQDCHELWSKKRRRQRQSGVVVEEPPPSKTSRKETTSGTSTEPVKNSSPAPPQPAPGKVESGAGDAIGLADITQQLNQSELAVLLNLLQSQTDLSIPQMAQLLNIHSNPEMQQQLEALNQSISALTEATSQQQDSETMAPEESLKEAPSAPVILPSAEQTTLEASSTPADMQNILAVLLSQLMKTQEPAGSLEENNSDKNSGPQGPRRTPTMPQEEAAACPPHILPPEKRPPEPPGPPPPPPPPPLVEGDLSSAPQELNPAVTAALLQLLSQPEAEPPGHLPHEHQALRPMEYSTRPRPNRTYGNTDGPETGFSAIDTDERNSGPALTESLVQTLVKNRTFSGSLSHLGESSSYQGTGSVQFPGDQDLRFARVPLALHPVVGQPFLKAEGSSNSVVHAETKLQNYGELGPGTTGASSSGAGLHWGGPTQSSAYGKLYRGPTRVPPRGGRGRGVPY
T1 sequence (O75909 whole entry partner): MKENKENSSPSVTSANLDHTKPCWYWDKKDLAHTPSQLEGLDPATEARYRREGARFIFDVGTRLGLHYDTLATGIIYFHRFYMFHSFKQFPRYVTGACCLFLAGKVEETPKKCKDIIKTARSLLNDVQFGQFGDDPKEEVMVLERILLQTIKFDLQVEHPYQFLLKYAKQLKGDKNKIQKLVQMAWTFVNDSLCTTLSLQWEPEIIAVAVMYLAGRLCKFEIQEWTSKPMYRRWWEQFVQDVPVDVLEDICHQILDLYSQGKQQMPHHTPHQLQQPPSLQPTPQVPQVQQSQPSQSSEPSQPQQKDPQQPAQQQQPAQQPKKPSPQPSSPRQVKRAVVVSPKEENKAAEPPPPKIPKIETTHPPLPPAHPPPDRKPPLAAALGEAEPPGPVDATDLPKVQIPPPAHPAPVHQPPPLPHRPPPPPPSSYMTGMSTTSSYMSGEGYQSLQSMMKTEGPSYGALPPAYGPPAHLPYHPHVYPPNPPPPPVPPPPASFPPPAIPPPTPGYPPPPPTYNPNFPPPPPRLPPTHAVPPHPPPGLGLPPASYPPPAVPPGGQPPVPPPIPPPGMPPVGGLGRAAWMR

IC50 [nM] | Compound
> 500 | C=CC(=O)Nc1ccc2c(c1)C(=O)N([C@H]1CCC[C@@H](Nc3ncc(-c4ccc(OC)cc4)cn3)C1)C2 [Example 4, N-(2-((1S,3R)-3-((5-(4-Methoxyphenyl)pyrimidin-2-yl)amino)cyclohexyl)-3-oxoisoindolin-5-yl)acrylamide]
50 to 500 | C=CC(=O)Nc1ccc2c(c1)C(=O)N([C@H]1CCC[C@@H](Nc3ncc(C4CC4)cn3)C1)C2 [Example 11, N-(2-((1S,3R)-3-((5-Cyclopropylpyrimidin-2-yl)amino)cyclohexyl)-3-oxoisoindolin-5-yl)acrylamide]
< 50 | C=CC(=O)Nc1ccc2c(c1)nc([C@H]1CCC[C@@H](Nc3ncc(C#N)c(OC)n3)C1)n2C [Example 73, N-(2-((1S,3R)-3-((5-Cyano-4-methoxypyrimidin-2-yl)amino)cyclohexyl)-1-methyl-1H-benzo[d]imidazol-5-yl)acrylamide]
50 to 500 | C=CC(=O)Nc1nn(C)c2c(N3CC[C@@H](Nc4ncc(C#N)cn4)C3)cccc12 [Example 20, (R)—N-(7-(3-((5-Cyanopyrimidin-2-yl)amino)pyrrolidin-1-yl)-1-methyl-1H-indazol-3-yl)acrylamide]
< 50 | C=CC(=O)Nc1ccc2c(c1)C(=O)N([C@H]1CCC[C@@H](Nc3ncc(Br)cn3)C1)C2 [Example 68, N-(2-((1S,3R)-3-((5-Bromopyrimidin-2-yl)amino)cyclohexyl)-3-oxoisoindolin-5-yl)acrylamide]
< 50 | C=CC(=O)Nc1nc2cccc(N3CC[C@@H](Nc4ncc(C#N)c(OC)n4)C3)n2n1 [Example 23, (R)—N-(5-(3-((5-Cyano-4-methoxypyrimidin-2-yl)amino)pyrrolidin-1-yl)-[1,2,4]triazolo[1,5-a]pyridin-2-yl)acrylamide]
< 50 | C=CC(=O)Nc1ccc2nc(N3CCC[C@@H](Nc4ncc(C#N)c(OC)n4)C3)sc2c1 [Example 46, (R)—N-(2-(3-((5-Cyano-4-methoxypyrimidin-2-yl)amino)piperidin-1-yl)benzo[d]thiazol-6-yl)acrylamide]
< 50 | C=CC(=O)Nc1ccc2c(c1)nc([C@H]1CCC[C@@H](Nc3ncc(C#N)cn3)C1)n2C [Example 74, N-(2-((1S,3R)-3-((5-Cyanopyrimidin-2-yl)amino)cyclohexyl)-1-methyl-1H-benzo[d]imidazol-5-yl)acrylamide]
< 50 | C=CC(=O)Nc1ccc2c(N3CCC[C@@H](Nc4ncc(C#N)c(OC)n4)C3)nn(C)c2c1 [Example 43, (R)—N-(3-(3-((5-Cyano-4-methoxypyrimidin-2-yl)amino)piperidin-1-yl)-1-methyl-1H-indazol-6-yl)acrylamide]
< 50 | C=CC(=O)Nc1ccc2c(c1)C(=O)N([C@H]1CCC[C@@H](Nc3ncc(C=C)cn3)C1)C2 [Example 7, N-(3-Oxo-2-((1S,3R)-3-((5-vinylpyrimidin-2-yl)amino)cyclohexyl)isoindolin-5-yl)acrylamide]
< 50 | C=CC(=O)Nc1cncc2sc(N3CC[C@@H](Nc4ncc(C#N)c(OC)n4)C3)nc12 [Example 38, (R)—N-(2-(3-((5-Cyano-4-methoxypyrimidin-2-yl)amino)pyrrolidin-1-yl)thiazolo[5,4-c]pyridin-7-yl)acrylamide]
< 50 | C=CC(=O)Nc1ccc2c(c1)nc(N1C[C@H](F)C[C@@H](Nc3ncc(C(F)(F)F)cn3)C1)n2C [Example 93, N-(2-((3R,5R)-3-Fluoro-5-((5-(trifluoromethyl)pyrimidin-2-yl)amino)piperidin-1-yl)-1-methyl-1H-benzo[d]imidazol-5-yl)acrylamide]
< 50 | C=CC(=O)Nc1ccc2c(c1)C(=O)N([C@H]1CCC[C@@H](Nc3ncc(C#N)c(NC)n3)C1)C2 [Example 67, N-(2-((1S,3R)-3-((5-Cyano-4-(methylamino)pyrimidin-2-yl)amino)cyclohexyl)-3-oxoisoindolin-5-yl)acrylamide]

Further lines, the compound ahead of its results:

Compound | IC50 [nM]
C=CC(=O)Nc1ccc2c(c1)nc(N1CC[C@@H](F)[C@@H](Nc3ncc(C(F)(F)F)cn3)C1)n2C [Example 90, N-(2-((3S,4R)-4-Fluoro-3-((5-(trifluoromethyl)pyrimidin-2-yl)amino)piperidin-1-yl)-1-methyl-1H-benzo[d]imidazol-5-yl)acrylamide] | < 50
C=CC(=O)Nc1cc2nc(N3CC[C@H](F)[C@@H](Nc4ncc(C(F)(F)F)cn4)C3)n(C)c2cc1C [Example 99, N-(2-((3S,4S)-4-Fluoro-3-((5-(trifluoromethyl)pyrimidin-2-yl)amino)piperidin-1-yl)-1,6-dimethyl-1H-benzo[d]imidazol-5-yl)acrylamide] | < 50
C=CC(=O)Nc1ccc2c(c1)C(=O)N([C@H]1CCC[C@@H](Nc3ncc(Br)c(C(F)(F)F)n3)C1)C2 [Example 75, N-(2-((1S,3R)-3-((5-Bromo-4-(trifluoromethyl)pyrimidin-2-yl)amino)cyclohexyl)-3-oxoisoindolin-5-yl)acrylamide] | < 50
CCOC(=O)/C=C/C(=O)Nc1ccc2c(c1)nc([C@H]1CCC[C@@H](Nc3ncc(C#N)c(OC)n3)C1)n2C [Example 48, Ethyl (E)-4-((2-((1S,3R)-3-((5-Cyano-4-methoxypyrimidin-2-yl)amino)cyclohexyl)-1-methyl-1H-benzo[d]imidazol-5-yl)amino)-4-oxobut-2-enoate] | < 50
C=CC(=O)Nc1ccc2c(c1)C(=O)N([C@H]1CCC[C@@H](Nc3cc(C#N)c(C(F)(F)F)cn3)C1)C2 [Example 19, N-(2-((1S,3R)-3-((4-Cyano-5-(trifluoromethyl)pyridin-2-yl)amino)cyclohexyl)-3-oxoisoindolin-5-yl)acrylamide] | < 50
C=CC(=O)Nc1ccc2c(N3CCC[C@@H](Nc4ncc(C#N)c(OC)n4)C3)csc2c1 [Example 42, (R)—N-(3-(3-((5-Cyano-4-methoxypyrimidin-2-yl)amino)piperidin-1-yl)benzo[b]thiophen-6-yl)acrylamide] | 50 to 500
C=CC(=O)Nc1cccc2c1ncn2[C@H]1CCC[C@@H](Nc2ncc(C#N)c(OC)n2)C1 [Example 27, N-(1-((1S,3R)-3-((5-Cyano-4-methoxypyrimidin-2-yl)amino)cyclohexyl)-1H-benzo[d]imidazol-4-yl)acrylamide] | < 50
C=CC(=O)Nc1ccc2c(c1)nc(C(F)F)n2[C@H]1CCC[C@@H](Nc2ncc(C#N)cn2)C1 [Example 84, N-(1-((1S,3R)-3-((5-Cyanopyrimidin-2-yl)amino)cyclohexyl)-2-(difluoromethyl)-1H-benzo[d]imidazol-5-yl)acrylamide] | 50 to 500
C=C(F)C(=O)Nc1ccc2c(c1)nc([C@H]1CCC[C@@H](Nc3ncc(C#N)c(OC)n3)C1)n2C [Example 53, N-(2-((1S,3R)-3-((5-Cyano-4-methoxypyrimidin-2-yl)amino)cyclohexyl)-1-methyl-1H-benzo[d]imidazol-5-yl)-2-fluoroacrylamide] | 50 to 500
C=CC(=O)Nc1nc2c(N3CC[C@@H](Nc4ncc(C#N)c(OC)n4)C3)nccn2n1 [Example 3, (R)—N-(8-(3-((5-Cyano-4-methoxypyrimidin-2-yl)amino)pyrrolidin-1-yl)-[1,2,4]triazolo[1,5-a]pyrazin-2-yl)acrylamide] | < 50
C=CC(=O)Nc1ccc2c(c1)C(=O)N([C@H]1CCC[C@@H](Nc3ncc(C)c(OC)n3)C1)C2 [Example 13, N-(2-((1S,3R)-3-((4-Methoxy-5-methylpyrimidin-2-yl)amino)cyclohexyl)-3-oxoisoindolin-5-yl)acrylamide] | 50 to 500
